From US20260176283A1, “IONIZABLE LIPIDS WITH LINEAR HEAD GROUPS” (Beam Therapeutics Inc., priority 2023, published 2026)
Values joined by “and” are separate entries in the source; they are usually repeats but may differ in a detail not shown here. Equal entries are not always repeated.

Columns and labels:
[1] = LNP characterization of base editor LNP preparations (DLS diameter, PDI, encapsulation efficiency); type: physicochemical
Procedure: (§1) Lipid nanoparticle components are dissolved in 100% ethanol at specified lipid component molar ratios. mRNA encoding an adenine base editor and a chemically-modified sgRNA is dissolved at a mass ratio of 1:1 in 10 mM citrate, 100 mM NaCl, pH 4.0, resulting in a concentration of NA cargo of approximately 0.22 mg/mL. LNP preparations are formulated with molar ratios of either 50% Ionizable Lipid: 38.5% Cholesterol: 1.5% PEG2000-DMG: 10% DSPC or 47.5% Ionizable Lipid: 40% Cholesterol: 2.5% PEG2000-DMG: 10% DSPC both at a total lipid to NA molar ratio of 6.
(§2) LNP preparations are formed by microfluidic mixing of the lipid and NA solutions using a Precision Nanosystems NanoAssemblr Ignite Instrument, according to the manufacturer's protocol. A 3:1 ratio of aqueous to organic solvent is maintained during mixing using differential flow rates. After mixing, LNP preparations are collected, diluted in PBS (approximately 2:1 v/v), and further buffer exchange is conducted using dialysis in PBS at 4° C. for 8 to 24 hours against a 20 kDa filter. After this initial dialysis, each individual LNP preparation is characterized via dynamic light scattering (DLS) to measure size and polydispersity. pKa of a subpopulation of LNP preparations is measured via TNS assay. After dialysis, LNP preparations are sterile filtered using 0.22 micron sterile filter and stored at 4° C. for further use. In some embodiments, LNP preparations may be concentrated using 100 kDa Amicon filters per manufacturer's protocol.
DLS—LNP preparation hydrodynamic diameter and polydispersity index (PDI) is measured using high throughput dynamic light scattering (DLS) (DynaPro plate reader II, Wyatt). LNP preparations are diluted 1×PBS to an appropriate concentration and analyzed.
Concentration of NA is determined by Qubit microRNA kit (for siRNA) or HS RNA kit (for mRNA) per manufacturer's instructions. Encapsulation efficiency is determined by measuring unlysed and lysed LNPs.

ALAS1 target site = assay: In vivo base editing with ABE mRNA and sgRNA targeting ALAS1; set-up: species or system Balb/c mice; details: for Quadrecept Editing A->G (%): formulation ratio 50:38.5:1.5:10, quadricep muscle; for Liver Editing A->G (%): 4 days after dosing
Procedure: as §1, §2
Male Balb/C mice aged approximately 8-12 weeks are used in the experiments described herein. Each mouse is temporarily restrained, and LNP preparations are administered IV via tail vein injection. Age-matched mice are also used to administer vehicle (1×PBS) via tail vein injection as a control. Four to six days post-dose, tissues including liver, spleen, heart and muscle are collected (only liver and muscle (quardracept) are reported). Genomic DNA is isolated and fragmented and adapter-ligated using the Nextera DNA Flex Library Prep Kit (Illumina) using the 96-well plate Nextera indexing primers (Illumina), according to the manufacturer's instructions. Library size and concentration is confirmed by Fragment Analyzer (Agilent) and sent to Novogene for whole genome sequencing using an Illumina HiSeq.
For base editing, mRNA encoding an adenine base editor (ABE) and a guide RNA (sgRNA) targeting ALAS1 at 1:1 (mass ratio) are coencapsulated in LNP preparations as described herein. LNP preparations are administrated into Balb/c mice through tail vein injections at concentrations ranging from 0.05 to 3.0 mg/kg total RNA. At 4 days after dosing, mice are euthanized and liver, spleen and bone barrow are harvested. Base editing is determined by performing targeted deep sequencing analysis at the ALAS1 target site using extracted genomic DNA.

[2] = LNP preparation characterization (encapsulation efficiency, DLS size and polydispersity), barcoded screen LNPs; type: physicochemical; details: LNP 47.5% ionizable lipid: 40% cholesterol: 2.5% PEG-2000 DMG: 10% DPSC, N/P 4.5-6; for AVG PDI / AVG Z Dia (nm): DLS
Procedure: Lipid nanoparticle components were dissolved in 100% ethanol at specified lipid component molar ratios. Nucleic acid (NA) cargo was dissolved in 10 mM citrate, 100 mM NaCl, pH 4.0, resulting in a concentration of NA cargo of approximately 0.22 mg/mL. In some embodiments, NA cargos included both a functional NA and a reporter barcode mixed at mass ratios of 1:10 to 10:1 functional NA to barcode. As described herein, a NA can be a siRNA, an anti-sense, an expressing DNA, or mRNA.
LNP preparations were prepared with 47.5% Ionizable Lipid (e.g., a compound provided herein): 40% cholesterol: 2.5% PEG-2000 DMG: 10% DPSC and an N/P ratio range of 4.5-6. LNP preparations were formed by microfluidic mixing of the lipid and NA solutions using Precision Nanosystems NanoAssemblr Spark or Benchtop series Instruments, according to the manufacturer's protocol.
A ratio of aqueous to organic solvent of approximately 2:1 or 3:1 was maintained during mixing using differential flow rates. After mixing, LNP preparations were collected, diluted in phosphate buffer saline (PBS) or Tris-buffered saline (TBS) (approximately 1:1 v/v). Further buffer exchange was conducted using dialysis in PBS or TBS at 4° C. for 4 to 24 hours against a 20 kDa filter. After this initial dialysis, each individual LNP preparation may be characterized via dynamic light scattering (DLS) to measure the size (e.g., diameter) and polydispersity. LNP preparations falling within specific diameter and polydispersity ranges were pooled, and further dialyzed against PBS or TBS at 4° C. for 1 to 4 hours against a 100 kDa dialysis cassette. After the second dialysis, LNP preparations were sterile filtered using 0.22 μm filter and stored at 4° C. for further use.

[3] = Table C LNPs, formulation ratio 47.5:40:2.5:10, ABE mRNA/ALAS1 sgRNA
[4] = Table D LNPs, formulation ratio 50:38.5:1.5:10, ABE mRNA/ALAS1 sgRNA

SMILES | Diameter (nm) [1, 3] | EE (%) [1, 3] | PDI (%) [1, 3] | Diameter (nm) [1, 4] | EE (%) [1, 4] | PDI (%) [1, 4] | Quadrecept Editing A->G (%) (ALAS1 target site; dose 3 MPK IV) | AVG EE(%) [2] | AVG PDI [2] | AVG Z Dia (nm) [2] | also measured
O=C(CCCCC(=O)OC(CCCCCC(F)(F)F)CCCCCC(F)(F)F)OCC(COC(=O)CCCCC(=O)OC(CCCCCC(F)(F)F)CCCCCC(F)(F)F)COC(=O)CCCN1CCCC1 [Compound (20), 1-(1,1,1,13,13,13-Hexafluorotridecan-7-yl)6-{2-[({6-[(1,1,1,13,13,13-hexafluorotridecan-7-yl)oxy]-6-oxohexanoyl}oxy)methyl]-3-{[4-(pyrrolidin-1-yl)butanoyl]oxy}propyl} hexanedioate] | 153.73 nm | 25% | 8.2% |  |  |  |  |  |  |  | 
CC/C=C\CCCC(CCC/C=C\CC)OC(=O)CCCCCCC(=O)OCC(COC(=O)CCCCCCC(=O)OC(CCC/C=C\CC)CCC/C=C\CC)COC(=O)CCCN1CCCC1 [Compound (13), 1-{2-[({8-Oxo-8-[(3Z,12Z)-pentadeca-3,12-dien-8-yloxy]octanoyl}oxy)methyl]-3-{[4-(pyrrolidin-1-yl)butanoyl]oxy}propyl} 8-(3Z,12Z)-pentadeca-3,12-dien-8-yl octanedioate] |  |  |  | 79.7 nm | 96.75% | 27.9% | 0.37% |  |  |  | 
CC/C=C\CCCC(CCC/C=C\CC)OC(=O)CCCCCC(=O)OCC(COC(=O)CCCCCC(=O)OC(CCC/C=C\CC)CCC/C=C\CC)COC(=O)NCCN1CCCC1 [Compound (28), 1-{2-[({7-oxo-7-[(3Z,12Z)-pentadeca-3,12-dien-8-yloxy]heptanoyl}oxy)methyl]-3-({[2-(pyrrolidin-1-yl)ethyl]carbamoyl}oxy)propyl}7-(3Z,12Z)-pentadeca-3,12-dien-8-ylheptanedioate] | 71.15 nm | 98.71% | 11.8% |  |  |  |  |  |  |  | Liver Editing A->G (%) (ALAS1 target site; dose 0.05 MPK IV, formulation ratio 47.5:40:2.5:10, liver): 0.65%
C=CCCCC(CCCC=C)COC(=O)CCCCCCC(=O)OCC(COC(=O)CCCCCCC(=O)OCC(CCCC=C)CCCC=C)COC(=O)CCCN1CCCC1 [Compound (15), 1-(2-1[(8-oxo-8-{[2-(pent-4-en-1-yl)hept-6-en-1-yl]oxy}octanoyl)oxy]methyl}-3-{[4-(pyrrolidin-1-yl)butanoyl]oxy}propyl) 8-[2-(pent-4-en-1-yl)hept-6-en-1-yl] octanedioate] |  |  |  | 96.6 nm | 94.81% | 11.6% | 4.05% |  |  |  | 
CC/C=C\CCCC(CCC/C=C\CC)COC(=O)CCCCC(=O)OCC(COC(=O)CCCCC(=O)OCC(CCC/C=C\CC)CCC/C=C\CC)COC(=O)CCCN1CCCC1 [Compound (24), 1-(6Z)-2-[(4Z)-Hept-4-en-1-yl]non-6-en-1-yl6-(2-{[(6-{[(6Z)-2-[(4Z)-hept-4-en-1-yl]non-6-en-1-yl]oxy}-6-oxohexanoyl)oxy]methyl}-3-{[4-(pyrrolidin-1-yl)butanoyl]oxy}propyl) hexanedioate] |  |  |  |  |  |  |  | 90.2% | 0.13 | 117.63 nm | 
C=CCCCCCC(CCCCCC=C)OC(=O)CCCCCC(=O)OCC(COC(=O)CCCCCC(=O)OC(CCCCCC=C)CCCCCC=C)COC(=O)CCCN1CCCC1 [Compound (9), 1-[2-({[7-Oxo-7-(pentadeca-1,14-dien-8-yloxy)heptanoyl]oxy}methyl)-3-{[4-(pyrrolidin-1-yl)butanoyl]oxy}propyl] 7-pentadeca-1,14-dien-8-yl heptanedioate] |  |  |  | 74.1 nm and 75.6 nm and 89.9 nm and 85.5 nm | 98.77% and 98.4% and 98.5% and 98.1% | 12.2% and 9.7% and 8.1% and 9.8% |  |  |  |  | Liver Editing A->G (%) (ALAS1 target site; dose 1.5 MPK IV, formulation ratio 50:38.5:1.5:10, liver): 90.8%; Quadrecept Editing A->G (%) (ALAS1 target site; dose 1.5 MPK IV): 8.22%
C=CCCCC(CCCC=C)COC(=O)CCCCC(=O)OCC(COC(=O)CCCCC(=O)OCC(CCCC=C)CCCC=C)COC(=O)CCCN1CCCC1 [Compound (19), 1-(2-{[(6-Oxo-6-{[2-(pent-4-en-1-yl)hept-6-en-1-yl]oxy}hexanoyl)oxy]methyl}-3-{[4-(pyrrolidin-1-yl)butanoyl]oxy}propyl) 6-[2-(pent-4-en-1-yl)hept-6-en-1-yl] hexanedioate] | 123 nm | 57.3% | 9.9% |  |  |  |  | 98.2% | 0.08 | 130.75 nm | 
C=CCCCCCCC(CCCCCCC=C)OC(=O)CCCCCC(=O)OCC(COC(=O)CCCCCC(=O)OC(CCCCCCC=C)CCCCCCC=C)COC(=O)CCCN1CCCC1 [Compound (4), 1-Heptadeca-1,16-dien-9-yl-7-[2-({[7-(heptadeca-1,16-dien-9-yloxy)-7-oxoheptanoyl]oxy}methyl)-3-{[4-(pyrrolidin-1-yl)butanoyl]oxy}propyl] heptanedioate] |  |  |  | 72.1 nm | 99.03% | 11% | 4.16% |  |  |  | Liver Editing A->G (%) (ALAS1 target site; dose 3 MPK IV, formulation ratio 50:38.5:1.5:10, liver): 64.7%
C=CCCCCCC(CCCCCC=C)OC(=O)CCCCCC(=O)OCCCC(CCCOC(=O)CCCCCC(=O)OC(CCCCCC=C)CCCCCC=C)OC(=O)CCCN1CCCC1 [Compound (22), O1-[7-[7-(1-hept-6-enyloct-7-enoxy)-7-oxo-heptanoyl]oxy-4-(4-pyrrolidin-1-ylbutanoyloxy)heptyl] O7-(1-hept-6-enyloct-7-enyl) heptanedioate] | 90.8 nm | 88.09% | 6.8% |  |  |  |  | 88.1% | 0.07 | 90.80 nm | 
CC/C=C\CCCC(CCC/C=C\CC)OC(=O)CCCCCC(=O)OCC(COC(=O)CCCCCC(=O)OC(CCC/C=C\CC)CCC/C=C\CC)COC(=O)CCCN1CCCC1 [Compound (14), 1-{2-[({7-Oxo-7-[(3Z,12Z)-pentadeca-3,12-dien-8-yloxy]heptanoyl}oxy)methyl]-3-{[4-(pyrrolidin-1-yl)butanoyl]oxy}propyl} 7-(3Z,12Z)-pentadeca-3,12-dien-8-yl heptanedioate] |  |  |  | 74.2 nm and 87.2 nm and 88.8 nm and 111.4 nm and 90.2 nm and 83.6 nm | 98.94% and 98.27% and 98.68% and 98.67% and 97.86% and 97.95% | 11.6% and 9.6% and 11.5% and 8% and 11.4% and 10.2% |  |  |  |  | 
